Source: US4966900A, “Cephalosporin β-lactam compound and medicinal composition” (priority 1986, dated 1990)
Converted amounts (≈) assume the structure as drawn. Structures can show the parent of a compound that is named as a salt.

Key:
in vivo = assay: in vivo; set-up: species or system Macaco; details: monkey, 20 mg/kg
Method: Each of 20 mg/kg of the compounds obtained in Example 2, Example 25 and Example 28 was administered parenterally to Macaco and the half-time in blood was measured.
The concentrations of the compounds were measured according to HPLC method. Novapack C18 or Microbondapack C18 (trade name, produced by Waters Co.) was used as a column. Further, cefpiramide was used as a control drug.

E. cloacae 908RN = assay: MIC; details: Enterobacter cloacae, E. colacae 908RN, Table 7
P. aeruginosa 5D58-1 = assay: MIC; details: Pseudomonas aeruginosa, 5D581, P. aeruginosa 5D58-1; Table 7
C. freundii 1R523 = assay: MIC; details: Citrobacter freundii, 1R523
P. aeruginosa GN10362 = assay: MIC; details: Pseudomonas aeruginosa, GN10362
E. cloacae 5D52-2 = assay: MIC; details: Enterobacter cloacae, 5D522
S. marcescens GN10857 = assay: MIC; details: Serratia marcescens, GN10857, S. marcescens GN10857; Table 7
C. freundii 1U692 = assay: MIC; details: Citrobacter freundii, 1U692
E. coli ML4707 = assay: MIC; details: Escherichia coli, ML4707, E. coli ML4707; Table 7
E. cloacae 1V25 = assay: MIC; details: Enterobacter cloacae
C. freundii 1R524 = assay: MIC; details: Citrobacter freundii, 1R524
P. aeruginosa 4au542 = assay: MIC; details: Pseudomonas aeruginosa, 4AU542, P. aeruginosa 4au542; Table 7
P. vulgaris GN7919 = assay: MIC; details: Proteus vulgaris, GN7919
C. freundii 5D60-1 = assay: MIC; details: Citrobacter freundii, 5D601
P. maltophilia OF247 = assay: MIC; details: Stenotrophomonas maltophilia, Table 7
C. freundii 1U589 = assay: MIC; details: Citrobacter freundii, 1U589
K. pneumoniae 4at521 = assay: MIC; details: Klebsiella pneumoniae, 4AT521
S. aureus Smith = assay: MIC; details: Staphylococcus aureus, Table 7
C. freundii 1R526 = assay: MIC; details: Citrobacter freundii, 1R526
E. colacae GN7471 = assay: MIC; details: Table 7
S. aureus IAA498 = assay: MIC; assay type: cell-based; details: Staphylococcus aureus, Table 7
Method: (§1) The minimum inhibition concentrations (MIC) of the compounds obtained in the respective examples described above were measured according to the standard method of Japanese Chemotherapy Association.

E. cloacae 1V247 = assay: MIC; assay type: cell-based; details: Enterobacter cloacae, Table 8
Method: as §1

E. cloacae 5D63-2 = assay: MIC; details: Enterobacter cloacae, 5D632
C. freundii GN7391 = assay: MIC; details: Citrobacter freundii, GN7391, C. freundii GN7391; Table 7
C. freundii 1R527 = assay: MIC; details: Citrobacter freundii, 1R527
P. cepacia OF189 = assay: MIC; details: Burkholderia cepacia, OF189, P. cepacia OF189; Table 7
E. coli GN5482 = assay: MIC; details: Escherichia coli, GN5482, E. coli GN5482; Table 7

Compound	MIC (E. cloacae 908RN) [µg/mL]	MIC (P. aeruginosa 5D58-1) [µg/mL]	MIC (C. freundii 1R523) [µg/mL]	MIC (P. aeruginosa GN10362) [µg/mL]	MIC (E. cloacae 5D52-2) [µg/mL]	MIC (S. marcescens GN10857) [µg/mL]	MIC (C. freundii 1U692) [µg/mL]	MIC (E. coli ML4707) [µg/mL]	MIC (E. cloacae 1V25) [µg/mL]	MIC (C. freundii 1R524) [µg/mL]	MIC (P. aeruginosa 4au542) [µg/mL]	MIC (P. vulgaris GN7919) [µg/mL]	MIC (C. freundii 5D60-1) [µg/mL]	MIC (P. maltophilia OF247) [µg/mL]	MIC (C. freundii 1U589) [µg/mL]	MIC (K. pneumoniae 4at521) [µg/mL]	MIC (S. aureus Smith) [µg/mL]	MIC (C. freundii 1R526) [µg/mL]	MIC (E. colacae GN7471) [µg/mL]	MIC (S. aureus IAA498) [µg/mL]	further results
Cc1cc(O)c(C(=O)N[C@@H](C(=O)N[C@@H]2C(=O)N3C(C(=O)O)=C(CSc4nnnn4C)CS[C@H]23)c2ccc(O)cc2)cn1 [Cefpiramide, cefpiramide, reference compound]																					half-life (in vivo): 2.5 h
CC(=O)Oc1ccc(C(=O)NNC(=O)C(C)(C)ON=C(C(=O)NC2C(=O)N3C(C(=O)O)=C(CSc4cc(C)nc5c(C(=O)O)cnn45)CSC23)c2csc(N)n2)cc1OC(C)=O (centres unmarked) [Example 53, 7-{2-[2-amino-1,3-thiazol-4-yl]-2-[1-(3-(3,4-diacetoxybenzoyl)carbazoyl)-1-methylethoxyimino]acetamido}-3-[(3-carboxy-5-methylpyrazolo[1,5-a]pyrimidin-7-yl)thiomethyl-3-cephem-4-carboxylic acid sodium salt]	0.78	0.1	0.78	0.05	0.1	0.78	1.56	0.012	6.25	0.78	0.05	1.56	3.13	0.78	3.13	0.012	12.5	0.78	0.78	12.5	MIC (E. cloacae 1V247): 12.5 µg/mL; MIC (E. cloacae 5D63-2): 0.39 µg/mL; MIC (C. freundii GN7391): 6.25 µg/mL; MIC (C. freundii 1R527): 0.78 µg/mL; MIC (P. cepacia OF189): < 0.006 µg/mL; MIC (E. coli GN5482): 0.012 µg/mL
CC(=O)Oc1ccc(C(=O)NNC(=O)C(C)(C)ON=C(C(=O)NC2C(=O)N3C(C(=O)O)=C(CSc4cc(C)nc5nc(C(=O)O)nn45)CS[C@H]23)c2csc(N)n2)cc1OC(C)=O (some centres unmarked) [Example 45, 7-{2-[2-Amino-1,3-thiazol-4-yl]-2-[1-(3-(3,4-diacetoxybenzoyl)carbazoyl)-1-methylethoxyimino]acetamido}-3-[(2-carboxy-5-methyl-s-triazolo[1,5-a]pyrimidin-7-yl)thiomethyl]-3-cephem-4-carboxylic acid]	1.56 (≈ 1.71 µM)	0.1 (≈ 0.11 µM)	0.78 (≈ 0.855 µM)	0.2 (≈ 0.219 µM)	0.39 (≈ 0.428 µM)	1.56 (≈ 1.71 µM)	1.56 (≈ 1.71 µM)	0.05 (≈ 0.0548 µM)	6.25 (≈ 6.85 µM)	0.78 (≈ 0.855 µM)	0.2 (≈ 0.219 µM)	3.13 (≈ 3.43 µM)	3.13 (≈ 3.43 µM)	1.56 (≈ 1.71 µM)	3.13 (≈ 3.43 µM)	0.05 (≈ 0.0548 µM)	12.5 (≈ 13.7 µM)	1.56 (≈ 1.71 µM)	1.56 (≈ 1.71 µM)	25 (≈ 27.4 µM)	MIC (E. cloacae 1V247): 6.25 µg/mL (≈ 6.85 µM); MIC (E. cloacae 5D63-2): 0.78 µg/mL (≈ 0.855 µM); MIC (C. freundii GN7391): 12.5 µg/mL (≈ 13.7 µM); MIC (C. freundii 1R527): 3.13 µg/mL (≈ 3.43 µM); MIC (P. cepacia OF189): 0.012 µg/mL (≈ 0.0132 µM); MIC (E. coli GN5482): 0.05 µg/mL (≈ 0.0548 µM)
CC(=O)Oc1ccc(C(=O)NNC(=O)C(C)(C)ON=C(C(=O)NC2C(=O)N3C(C(=O)O)=C(CSc4cc(C)nc5nc(C(F)(F)F)nn45)CS[C@H]23)c2csc(N)n2)cc1OC(C)=O (some centres unmarked) [Example 48, 7-{2-[2-Amino-1,3-thiazol-4-yl]-2-[1-(3-(3,4-diacetoxybenzoyl)carbazoyl)-1-methylethoxyimino]acetamido}-3-[(5-methyl-2-trifluoromethyl-s-triazolo[1,5-a]pyrimidin-7-yl)-thiomethyl]-3-cephem-4-carboxylic acid]	3.13 (≈ 3.34 µM)	0.78 (≈ 0.833 µM)	0.78 (≈ 0.833 µM)	0.78 (≈ 0.833 µM)	1.56 (≈ 1.67 µM)	12.5 (≈ 13.4 µM)	12.5 (≈ 13.4 µM)	0.1 (≈ 0.107 µM)	50 (≈ 53.4 µM)	0.78 (≈ 0.833 µM)	1.56 (≈ 1.67 µM)	3.13 (≈ 3.34 µM)	12.5 (≈ 13.4 µM)	12.5 (≈ 13.4 µM)	12.5 (≈ 13.4 µM)	0.1 (≈ 0.107 µM)	6.25 (≈ 6.68 µM)	12.5 (≈ 13.4 µM)	12.5 (≈ 13.4 µM)	12.5 (≈ 13.4 µM)	MIC (E. cloacae 1V247): 50 µg/mL (≈ 53.4 µM); MIC (E. cloacae 5D63-2): 1.56 µg/mL (≈ 1.67 µM); MIC (C. freundii GN7391): 12.5 µg/mL (≈ 13.4 µM); MIC (C. freundii 1R527): 25 µg/mL (≈ 26.7 µM); MIC (P. cepacia OF189): < 0.006 µg/mL; MIC (E. coli GN5482): 0.05 µg/mL (≈ 0.0534 µM)
CC(=O)Oc1ccc(C(=O)NNC(=O)C(C)(C)ON=C(C(=O)NC2C(=O)N3C(C(=O)O)=C(CSc4c(C)c(C)nc5c(C(=O)O)cnn45)CS[C@H]23)c2csc(N)n2)cc1OC(C)=O (some centres unmarked) [Example 47, 7-{2-[2-Amino-1,3-thiazol-4-yl]-2-[1-(3-(3,4-diacetoxybenzoyl)carbazoyl)-1-methylethoxyimino]acetamido}-3-[(3-carboxy-5,6-dimethylpyrazolo[1,5-a]pyrimidin-7-yl)thiomethyl]-3-cephem-4-carboxylic acid]	0.78 (≈ 0.843 µM)	0.39 (≈ 0.422 µM)	0.39 (≈ 0.422 µM)	0.39 (≈ 0.422 µM)	0.2 (≈ 0.216 µM)	0.39 (≈ 0.422 µM)	0.39 (≈ 0.422 µM)	0.025 (≈ 0.027 µM)	3.13 (≈ 3.38 µM)	0.39 (≈ 0.422 µM)	0.78 (≈ 0.843 µM)	6.26 (≈ 6.77 µM)	0.78 (≈ 0.843 µM)	0.78 (≈ 0.843 µM)	1.56 (≈ 1.69 µM)	0.025 (≈ 0.027 µM)	25 (≈ 27 µM)	0.39 (≈ 0.422 µM)	0.39 (≈ 0.422 µM)	50 (≈ 54.1 µM)	MIC (E. cloacae 1V247): 3.13 µg/mL (≈ 3.38 µM); MIC (E. cloacae 5D63-2): 0.39 µg/mL (≈ 0.422 µM); MIC (C. freundii GN7391): 1.56 µg/mL (≈ 1.69 µM); MIC (C. freundii 1R527): 0.78 µg/mL (≈ 0.843 µM); MIC (P. cepacia OF189): < 0.006 µg/mL; MIC (E. coli GN5482): 0.025 µg/mL (≈ 0.027 µM)
Cc1cc(SCC2=C(C(=O)O)N3C(=O)C(NC(=O)C(=NOC(C)(C)C(=O)NNC(=O)c4ccc(O)c(O)c4)c4csc(N)n4)[C@H]3SC2)n2nccc2n1 (some centres unmarked) [Example 58, 7-{2-[2-Amino-1,3-thiazol-4-yl]-2-[1-(3-(3,4-dihydroxybenzoyl)carbazoyl)-1-methylethoxyimino]acetamido}-3-[(5-methylpyrazolo[1,5-a]pyrimidin-7-yl)thiomethyl]-3-cephem-4-carboxylic acid]	0.39 (≈ 0.498 µM)	0.05 (≈ 0.0639 µM)	0.39 (≈ 0.498 µM)	0.1 (≈ 0.128 µM)	0.1 (≈ 0.128 µM)	1.56 (≈ 1.99 µM)	1.56 (≈ 1.99 µM)	< 0.006	6.25 (≈ 7.98 µM)	0.39 (≈ 0.498 µM)	0.2 (≈ 0.255 µM)	1.56 (≈ 1.99 µM)	1.56 (≈ 1.99 µM)	1.56 (≈ 1.99 µM)	3.13 (≈ 4 µM)	0.012 (≈ 0.0153 µM)	1.56 (≈ 1.99 µM)	3.13 (≈ 4 µM)	1.56 (≈ 1.99 µM)	3.13 (≈ 4 µM)	MIC (E. cloacae 1V247): 6.25 µg/mL (≈ 7.98 µM); MIC (E. cloacae 5D63-2): 0.39 µg/mL (≈ 0.498 µM); MIC (C. freundii GN7391): 3.13 µg/mL (≈ 4 µM); MIC (C. freundii 1R527): 1.56 µg/mL (≈ 1.99 µM); MIC (P. cepacia OF189): 0.012 µg/mL (≈ 0.0153 µM); MIC (E. coli GN5482): < 0.006 µg/mL
